Results from ChEMBL document CHEMBL4325857, “Discovery and synthesis of tetrahydropyrimidinedione-4-carboxamides as endothelial lipase inhibitors” (Bioorg Med Chem Lett, 2018).

What was measured:
[1] = Permeability of compound at pH 5.5 by PAMPA; format: ADME; details: read-out: permeability
[2] = Unbound plasma concentration in mouse at 1 mg/kg, iv; format: ADME, organism-based
[3] = AUC in mouse at 1 mg/kg, iv; format: ADME, organism-based; details: in vivo
[4] = Permeability of compound at pH 7.4 by PAMPA; format: ADME; details: read-out: permeability
[5] = Metabolic stability in mouse liver microsomes assessed as parent compound remaining after 10 mins; format: ADME, Microsome; details: read-out: Stability
[6] = biological target: T1, Endothelial lipase (Homo sapiens, UniProt Q9Y5X9); assay: Inhibition of endothelial lipase (unknown origin) using D31-POPC-HDL as substrate after 2 hrs in presence of human serum by LC/MS analysis
T1 sequence (Q9Y5X9 whole entry): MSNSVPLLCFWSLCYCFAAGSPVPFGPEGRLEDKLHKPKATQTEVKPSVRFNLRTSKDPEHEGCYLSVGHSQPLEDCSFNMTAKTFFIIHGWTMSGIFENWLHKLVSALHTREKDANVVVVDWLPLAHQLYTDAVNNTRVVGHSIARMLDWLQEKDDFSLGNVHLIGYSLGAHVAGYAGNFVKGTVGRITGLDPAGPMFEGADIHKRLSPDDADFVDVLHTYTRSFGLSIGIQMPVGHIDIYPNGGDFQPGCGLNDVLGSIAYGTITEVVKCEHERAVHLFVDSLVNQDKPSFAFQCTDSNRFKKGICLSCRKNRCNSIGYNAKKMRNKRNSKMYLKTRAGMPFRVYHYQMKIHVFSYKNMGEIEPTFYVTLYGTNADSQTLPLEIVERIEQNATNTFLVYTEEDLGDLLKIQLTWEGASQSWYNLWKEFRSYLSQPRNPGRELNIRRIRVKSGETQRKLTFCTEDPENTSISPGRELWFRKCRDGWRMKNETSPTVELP

[7] = biological target: T1, Endothelial lipase; assay: Inhibition of recombinant human endothelial lipase expressed in African green monkey COS7 cells using HDL as substrate pretreated for 10 mins followed by substrate addition and measured after 30 mins by LC/MS/MS analysis
[8] = Half life in mouse at 1 mg/kg, iv; format: ADME, organism-based; details: in vivo
[9] = Oral bioavailability in mouse at 1 mg/kg; format: ADME, organism-based; details: in vivo
[10] = Bioavailability in mouse at 1 mg/kg, […]; format: ADME, organism-based; details: in vivo
[11] = AUC in mouse at 1 mg/kg, po; format: ADME, organism-based; details: in vivo

Row | Structure (SMILES) | Papp [1] | Papp [4] | remaining at 10 min [5] | IC50 [6] | IC50 [7] | also measured
1 | CCN1CC(C(=O)NC(C)CCc2ccc(Cl)c(Cl)c2)=C(O)C1=O (stereo not drawn) | 508 nm/s | 35 nm/s | 92% | > 476 µM |  | fraction unbound [2]: 0.023; AUC [3]: 300 µM·h
2 | Nc1c(C(=O)N[C@@H]2CC[C@H](c3ccccc3)C2)[nH]c(=O)[nH]c1=O |  |  |  | 231 µM | 0.175 µM | 
3 | Nc1c(C(=O)N[C@H]2CC[C@@H](c3ccccc3)CC2)n(-c2ccccc2)c(=O)[nH]c1=O |  |  |  |  | 2.35 µM | 
4 | O=C(N[C@H]1CC[C@@H](c2ccccc2)CC1)c1[nH]c(=O)n(Cc2ccccc2)c(=O)c1O | 277 nm/s | 158 nm/s |  | 32 µM | 0.117 µM | 
5 | CC(C)Cn1c(=O)[nH]c(C(=O)N[C@H]2CC[C@@H](c3ccccc3)CC2)c(O)c1=O |  |  | 100% | 48 µM | 0.059 µM | 
6 | CCN1CC(C(=O)N[C@H]2CC[C@@H](c3ccccc3)CC2)=C(O)C1=O |  |  |  |  | 0.082 µM | 
7 | O=C(N[C@H]1CC[C@@H](c2ccccc2)CC1)c1[nH]c(=O)n(CCO)c(=O)c1O |  |  |  | > 143 µM | 0.08 µM | 
8 | Nc1c(C(=O)N[C@H]2CC[C@@H](c3ccccc3)CC2)[nH]c(=O)[nH]c1=O |  |  |  |  | 0.091 µM | 
9 | CO[C@]1(c2ccc(F)cc2)CC[C@@H](NC(=O)c2[nH]c(=O)[nH]c(=O)c2N)CC1 |  |  |  |  | 1.01 µM | 
10 | Nc1c(C(=O)N[C@H]2CC[C@@H](c3ccccc3)C2)[nH]c(=O)[nH]c1=O |  |  |  | > 952 µM | 0.218 µM | 
11 | O=C(N[C@H]1CC[C@@H](c2ccccc2)CC1)c1[nH]c(=O)[nH]c(=O)c1NC1CCCC1 |  |  |  | 436 µM | 0.156 µM | 

More lines, in order of falling IC50 [7], values ahead:

Row | Papp [1] | Papp [4] | remaining at 10 min [5] | IC50 [6] | IC50 [7] | Structure (SMILES) | also measured
12 | 289 nm/s | 322 nm/s | 92% | 76 µM | 0.05 µM | Nc1c(C(=O)N[C@@H]2CC[C@H](c3ccccc3)c3ccccc32)[nH]c(=O)[nH]c1=O | half-life [8]: 1.4 h; AUC [3]: 11 µM·h
13 | 960 nm/s | 712 nm/s | 79% | 81 µM | 0.049 µM | Nc1c(C(=O)N[C@@H]2CCCc3c(OCc4ccccc4)cccc32)[nH]c(=O)[nH]c1=O | bioavailability [9]: 55%; fraction unbound [2]: 0.015; bioavailability [10]: 55%; AUC [11]: 79 µM·h; half-life [8]: 6.7 h; AUC [3]: 140 µM·h
14 | 427 nm/s | 12 nm/s | 100% | 25 µM | 0.026 µM | O=C(N[C@H]1CC[C@@H](c2ccccc2)CC1)c1[nH]c(=O)[nH]c(=O)c1O | fraction unbound [2]: 0.15; half-life [8]: 1.1 h; AUC [3]: 5.5 µM·h
15 |  |  | 85% | 35 µM | 0.021 µM | Nc1c(C(=O)N[C@H]2CC[C@@H](c3ccc(OCc4ccccc4)cc3)CC2)[nH]c(=O)[nH]c1=O | 
16 |  | 768 nm/s | 85% | 80 µM | 0.017 µM | Nc1c(C(=O)N[C@@H]2CCc3cc(OCc4ccccc4)ccc32)[nH]c(=O)[nH]c1=O | 
